Here are results for one compound from patent US9409906B2, “Pyrimido[4,5-B]indole derivatives and use thereof in the expansion of hematopoietic stem cells” (UNIVERSITÉ DE MONTRÉAL, priority 2012, dated 2016).

The test system of assay [1] is Mobilized peripheral blood CD34(+) cells. Nature of the assay: Reversibility (wash-out) of compound effect on CD34+CD45RA− percentage (FIG. 2). It is filed as cell-based, human. As to conditions: for reversibility of effect on CD34+CD45RA− percentage after wash-out: 7 days with compound, washed, 8 additional days. How it is done: FIG. 2: Effect of compound 1 is reversible. Mobilized peripheral blood CD34(+) cells cultured for 7 days with compound 1 (shown in green) or vehicle (DMSO, shown in blue) were washed and re-plated in fresh media with or without Compound addition (solid vs dashed line respectively). Cells were cultured for 8 additional days and the percentage of CD34+CD45RA− was monitored.
This effect is best shown in FIG. 2 where CD34+ mobilized peripheral blood cells are cultured in the presence of Compound 1 for up to 7 days, at which time the Compound 1 is removed by washing the cells.

In assay [2] the test system is CD34+ mobilized peripheral blood (mPB) cells. Briefly: Ex vivo expansion of mobilized peripheral blood-derived CD34+ and CD34+CD45RA− cells (FIG. 5A). The class given is cell-based, human. The source says: FIG. 5: A) Compound 1 expands mobilized peripheral blood-derived CD34+ and CD34+CD45RA− cell populations ex vivo. […] This observation was enhanced with the co-treatment with SR1.
[…]. The level of expansion is the same whether cultures are initiated with Compound 1, SR1, Compound 1+SR1, or control DMSO. […] […].

The test system of assay [3] is CD34+CD45RA− cord blood cells. Briefly: Ex vivo expansion of cord blood-derived CD34+ and CD34+CD45RA− cells (FIG. 5B, 5C). The class given is cell-based, human.
For another assay, the system named is CD34+ cord blood cells. Nature of the assay: FACS analysis of differentiation of CD34+ cord blood cells (FIG. 4B-4D). As to conditions: FACS / cytological analysis.

On to `COC(=O)c1ccc2c(c1)[nH]c1ncnc(NCCCN3CCCCC3)c12` [Compound 1, Methyl 4-((3-(piperidin-1-yl)propyl)amino)-9H-pyrimido[4,5-b]indole-7-carboxylate], for which the “reversibility of effect on CD34+CD45RA− percentage after wash-out” value in assay [1] was “rapidly reversible”. For the same compound, the “reversibility of effect on CD34+CD45RA− percentage after wash-out” value in assay [1] (listed as compound 1) is reported as “reversible”. For the same compound, the “compound-free exposure until cells acquired differentiation markers as in control cultures” value in assay [1] (after wash-out at day 7) was not above 2 days. Further, in assay [2] (12-days culture), the “expansion of CD34+CD45RA− cell subpopulation” value is “about ten fold” and the “total cell count increase above the input” value is listed as “about 20 fold”. In addition, in assay [2] (FIG. 5A), the “CD34+ population vs DMSO” value is “more than twice”, the “CD34+CD45RA− population vs DMSO” value is listed as “more than three times” and the “total cell count vs DMSO” value is “the same”. In assay [3] (7-day incubation), the “expansion of cord blood-derived CD34+ and CD34+CD45RA− cells” value was “enhances expansion”. Also, the “in vitro expansion of cord blood-derived CD34+ and CD34+CD45RA− cells” value in assay [3] (12-day incubation) is on record as “positive effect”. Further, the “expansion of CD34+CD45RA− cord blood cells” value in assay [3] (seven day period, DMSO about fifteen fold) is reported as 30-40 fold. Besides, the “differentiation of CD34+ cord blood cells” value in the assay on CD34+ cord blood cells was “reduces differentiation”.
